Target: T1, HarmOR11/Orco (Helicoverpa armigera, UniProt A0A7D5JUD6)
T1 construct: full-length HarmOR11 and HarmOrco cloned from antennal cDNA into pT7Ts; cRNAs co-injected in Xenopus laevis oocytes; heteromeric channel, exact stoichiometry unknown (2:2 only modelled); with Odorant receptor coreceptor
T1 sequence (A0A7D5JUD6 1-431): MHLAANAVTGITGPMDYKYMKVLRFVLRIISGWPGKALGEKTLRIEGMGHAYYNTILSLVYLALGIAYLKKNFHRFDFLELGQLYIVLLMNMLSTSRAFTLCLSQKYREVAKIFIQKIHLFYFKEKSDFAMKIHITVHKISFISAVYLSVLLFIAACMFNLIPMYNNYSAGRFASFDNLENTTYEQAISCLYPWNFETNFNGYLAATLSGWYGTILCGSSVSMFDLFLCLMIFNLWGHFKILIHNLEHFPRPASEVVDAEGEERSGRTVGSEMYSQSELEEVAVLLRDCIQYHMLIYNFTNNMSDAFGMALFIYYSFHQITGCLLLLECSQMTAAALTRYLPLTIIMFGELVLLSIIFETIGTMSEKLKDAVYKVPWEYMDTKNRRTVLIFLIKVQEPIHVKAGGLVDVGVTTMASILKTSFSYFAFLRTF
T1 sequence (E5KJL4 1-473 partner): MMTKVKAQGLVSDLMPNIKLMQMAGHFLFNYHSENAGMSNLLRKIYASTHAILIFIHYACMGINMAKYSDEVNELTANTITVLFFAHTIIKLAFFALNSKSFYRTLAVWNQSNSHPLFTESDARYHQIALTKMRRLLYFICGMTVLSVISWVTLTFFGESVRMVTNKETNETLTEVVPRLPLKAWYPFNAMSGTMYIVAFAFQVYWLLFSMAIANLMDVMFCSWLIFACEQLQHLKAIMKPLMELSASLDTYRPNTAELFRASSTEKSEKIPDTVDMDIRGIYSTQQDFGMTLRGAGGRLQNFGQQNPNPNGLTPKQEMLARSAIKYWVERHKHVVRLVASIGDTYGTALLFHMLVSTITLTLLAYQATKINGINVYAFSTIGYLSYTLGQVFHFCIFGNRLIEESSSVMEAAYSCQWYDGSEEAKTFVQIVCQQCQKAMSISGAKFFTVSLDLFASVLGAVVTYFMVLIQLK
Assay: two-electrode voltage clamp of Xenopus oocytes co-expressing HarmOR11/Orco
Format: cell-based
Conditions: agonist; holding potential -80 mV; Ringer's buffer pH 7.6; from DMSO stock; unit printed as mol (concentration meant)

EC50: 1.637e-05 mol
Structure (SMILES): CC/C=C\C/C=C\C/C=C\CCCCCCCCCCC [3Z,6Z,9Z-21:H, 3Z,6Z,9Z-heneicosatriene]
